One test has as its target Cholinesterase (Homo sapiens, UniProt P06276). Nature of the test: Inhibition of BuChE (unknown origin).
For a further test, the target named is Acetylcholinesterase (Homo sapiens, UniProt P22303). The experiment in a line: Inhibition of AChE (unknown origin).
Test [1] is described as follows: Inhibition of NADPH oxidase in Homo sapiens (human) HUVEC cells. In kind it is cell-based.
The target in test [2] is Glycogen synthase kinase-3 beta (Homo sapiens, UniProt P49841). The experiment in a line: Inhibition of Homo sapiens (human) recombinant GSK3beta after 30 min by Kinase-Glo assay. A general note: In Kinase-Glo more light means more ATP remaining.
Sequence of Glycogen synthase kinase-3 beta (P49841 whole entry): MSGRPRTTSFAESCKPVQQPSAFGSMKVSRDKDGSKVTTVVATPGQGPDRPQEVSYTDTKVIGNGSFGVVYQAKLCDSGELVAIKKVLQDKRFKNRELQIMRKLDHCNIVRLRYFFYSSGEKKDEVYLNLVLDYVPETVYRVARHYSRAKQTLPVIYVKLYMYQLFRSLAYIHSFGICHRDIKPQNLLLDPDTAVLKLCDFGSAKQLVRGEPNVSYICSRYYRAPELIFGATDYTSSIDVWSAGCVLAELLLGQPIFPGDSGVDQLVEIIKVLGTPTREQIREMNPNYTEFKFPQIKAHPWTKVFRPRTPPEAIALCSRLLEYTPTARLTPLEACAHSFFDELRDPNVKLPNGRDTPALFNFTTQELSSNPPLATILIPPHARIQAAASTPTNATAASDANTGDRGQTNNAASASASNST
For the next test, the target named is Beta-secretase 1 (Homo sapiens, UniProt P56817). Nature of the test: Inhibition of BACE1 (unknown origin).
Sequence of Beta-secretase 1 (P56817 whole entry): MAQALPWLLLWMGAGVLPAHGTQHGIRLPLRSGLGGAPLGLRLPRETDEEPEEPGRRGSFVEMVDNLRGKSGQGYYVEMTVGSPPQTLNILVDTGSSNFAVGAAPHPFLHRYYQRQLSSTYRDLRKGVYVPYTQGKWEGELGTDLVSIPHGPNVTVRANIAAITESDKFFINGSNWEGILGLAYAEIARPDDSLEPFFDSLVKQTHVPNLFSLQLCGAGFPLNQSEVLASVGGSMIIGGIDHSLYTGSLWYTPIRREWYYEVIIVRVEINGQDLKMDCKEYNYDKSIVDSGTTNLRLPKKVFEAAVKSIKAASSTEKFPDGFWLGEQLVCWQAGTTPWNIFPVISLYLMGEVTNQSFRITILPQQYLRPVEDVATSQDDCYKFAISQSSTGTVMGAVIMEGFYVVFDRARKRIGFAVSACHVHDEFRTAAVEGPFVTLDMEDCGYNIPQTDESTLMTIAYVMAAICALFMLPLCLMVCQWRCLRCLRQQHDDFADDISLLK

Sequence of Cholinesterase (P06276 whole entry): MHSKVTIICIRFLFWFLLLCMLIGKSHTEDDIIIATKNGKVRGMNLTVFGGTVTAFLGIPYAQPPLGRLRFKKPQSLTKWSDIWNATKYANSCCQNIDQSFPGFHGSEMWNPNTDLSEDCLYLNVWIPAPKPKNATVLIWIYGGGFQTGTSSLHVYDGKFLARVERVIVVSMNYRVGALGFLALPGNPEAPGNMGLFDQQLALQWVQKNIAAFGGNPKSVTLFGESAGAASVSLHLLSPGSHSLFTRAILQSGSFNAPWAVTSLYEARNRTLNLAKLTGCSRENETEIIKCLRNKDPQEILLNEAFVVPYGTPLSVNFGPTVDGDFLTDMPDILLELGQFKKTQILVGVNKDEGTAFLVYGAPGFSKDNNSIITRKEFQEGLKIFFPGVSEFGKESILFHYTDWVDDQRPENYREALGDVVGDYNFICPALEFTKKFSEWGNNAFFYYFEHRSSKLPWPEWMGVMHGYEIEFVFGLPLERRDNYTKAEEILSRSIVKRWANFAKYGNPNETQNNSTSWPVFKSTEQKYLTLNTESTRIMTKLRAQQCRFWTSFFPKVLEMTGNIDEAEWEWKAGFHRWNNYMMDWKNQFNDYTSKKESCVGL
Sequence of Acetylcholinesterase (P22303 whole entry): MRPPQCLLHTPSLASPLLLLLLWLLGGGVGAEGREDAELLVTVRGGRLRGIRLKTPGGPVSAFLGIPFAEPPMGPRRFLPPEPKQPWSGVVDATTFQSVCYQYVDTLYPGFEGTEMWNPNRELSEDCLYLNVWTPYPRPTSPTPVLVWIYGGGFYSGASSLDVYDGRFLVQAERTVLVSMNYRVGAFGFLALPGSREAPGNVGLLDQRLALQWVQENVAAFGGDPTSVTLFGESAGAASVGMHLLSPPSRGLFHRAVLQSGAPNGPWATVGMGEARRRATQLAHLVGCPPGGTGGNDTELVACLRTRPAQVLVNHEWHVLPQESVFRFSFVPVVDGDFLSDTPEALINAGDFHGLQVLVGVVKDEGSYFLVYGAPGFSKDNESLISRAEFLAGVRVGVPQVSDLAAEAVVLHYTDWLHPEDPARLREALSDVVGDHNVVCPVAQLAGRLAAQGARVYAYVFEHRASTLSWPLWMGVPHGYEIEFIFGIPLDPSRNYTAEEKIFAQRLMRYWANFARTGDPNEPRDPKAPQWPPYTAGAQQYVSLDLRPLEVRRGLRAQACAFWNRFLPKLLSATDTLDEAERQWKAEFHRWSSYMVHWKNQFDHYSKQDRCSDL

In turn, `CC(C)=CCC/C(C)=C/Cc1cc(-c2cc(=O)c3c(O)cc(O)cc3o2)c(O)cc1O` returned an IC50 on Cholinesterase of 16.2 µM. For the same molecule, on Acetylcholinesterase, 16.2 µM corresponded to half-maximal inhibition (IC50) and the Ki came out at 3.1 µM.

For the molecule `COc1cc(O)c(-c2cc(=O)c3c(O)cc(O)cc3o2)cc1C/C=C(\C)CCC=C(C)C`, on Cholinesterase, the IC50 was 11 µM and affinity was put at a Ki of 1.74 µM. On Acetylcholinesterase, half-maximal inhibition (IC50) was put at 11 µM and the Ki came out at 3.1 µM.

In the case of `COc1cc2occ(-c3ccc(OC4CCN(Cc5ccccc5)CC4)cc3)c(=O)c2cc1OC`, the IC50 on Acetylcholinesterase is 0.093 µM.

On to `COc1cc2occ(-c3ccc(N4CCCC4)cc3)c(=O)c2cc1OC`, for which, at Acetylcholinesterase, the IC50 came to 1.63 µM.

`COc1cc([C@H]2Oc3cc(O)cc(O)c3C[C@H]2O)ccc1O` [3'-O-METHYL EPICATECHIN] displayed an IC50 in test [1] of 7.9 µM.

Regarding `O=C1c2c(O)cc(O)cc2O[C@H](c2ccc(O)c(O)c2)[C@H]1O` [(+)-TAXIFOLIN], 12 µM corresponded to half-maximal inhibition in test [1] (IC50).

`Oc1cc(O)c2c(c1)O[C@H](c1ccc(O)c(O)c1)[C@H](O)C2` [(-)-EPICATECHIN]: in test [1], the IC50 is greater than 100 µM.

As to `O=c1cc(-c2ccc(O)cc2)oc2cc(O)cc(O)c12` [APIGENIN], the values for the IC50 (at Acetylcholinesterase; in test [2]) were 0.012 µM and 1.9 µM, respectively.

On to `CC(C)=CC1Oc2cc(O)ccc2-c2oc3c4c(cc(O)c3c(=O)c21)OC(C)(C)C=C4` (configuration not stated) [CYCLOMORUSIN], for which the IC50 against Cholinesterase was found to be 1.7 µM. Moreover, affinity at Acetylcholinesterase was put at a Ki of 3.1 µM.

With `COc1ccc(-c2cc(=O)c3c(O)cc(O)cc3o2)cc1O` [DIOSMETIN], in test [1], the IC50 stood at 7.6 µM.

In turn, `Oc1cc(O)c2c(c1)O[C@H](c1cc(O)c(O)c(O)c1)[C@H](O)C2` [EPIGALLOCATECHIN] came in with an IC50 in test [1] of 8 µM.

Consider `O=c1c(O)c(-c2ccc(O)c(O)c2)oc2cc(O)ccc12` [FISETIN], for which, at Acetylcholinesterase, the midpoint of inhibition, the IC50, lay at 0.012 µM.

`O=c1c(O)c(-c2ccccc2)oc2cc(O)cc(O)c12` [GALANGIN] showed an IC50 at Acetylcholinesterase of 0.012 µM.

Take `COc1ccc([C@@H]2CC(=O)c3c(O)cc(O)cc3O2)cc1O` [HESPERETIN]: the IC50 in test [2] came to 26.9 µM.

On to `COc1ccc([C@@H]2CC(=O)c3c(O)cc(O[C@@H]4O[C@H](CO[C@@H]5O[C@@H](C)[C@H](O)[C@@H](O)[C@H]5O)[C@@H](O)[C@H](O)[C@H]4O)cc3O2)cc1O` [HESPERIDIN], for which the IC50 in test [2] was 100 µM.

In test [1], `OCCc1ccc(O)c(O)c1` [HYDROXYTYROSOL] registered an IC50 of 7.5 µM.

As to `COc1cc(-c2oc3cc(O)cc(O)c3c(=O)c2O)ccc1O` [ISORHAMNETIN], inhibition in test [1] was half-maximal at 2.8 µM (IC50).

On Acetylcholinesterase, `O=c1c(OC2O[C@H](CO)[C@H](O)[C@H](O)[C@H]2O)c(-c2ccc(O)cc2)oc2cc(O)cc(O)c12` (stereo partly drawn) [KAEMPFEROL 3-O-D-GALACTOSIDE] yielded an IC50 of 0.012 µM.

As to `O=c1c(O)c(-c2ccc(O)cc2)oc2cc(O)cc(O)c12` [KAEMPFEROL], the figures for the IC50 (in test [1]; at Beta-secretase 1) were 10 µM and 14.7 µM, respectively.

At Cholinesterase, `CC(C)=CCc1c(-c2ccc(O)cc2O)oc2c(CC=C(C)C)c(O)cc(O)c2c1=O` [KUWANON C] registered an IC50 of 1.7 µM. The same molecule returned a Ki at Acetylcholinesterase of 3.1 µM.

Take `CC(C)=CCC/C(C)=C/Cc1cc(C2CC(=O)c3c(O)cc(O)cc3O2)c(O)cc1O` (configuration not stated) [KUWANON E]: the IC50 against Cholinesterase is 1.7 µM. This molecule returned a Ki at Acetylcholinesterase of 3.1 µM.

On Cholinesterase, `COc1cc(O)c(C2CC(=O)c3c(O)cc(O)cc3O2)cc1C/C=C(\C)CCC=C(C)C` (configuration not stated) [KUWANONU] had an IC50 of 1.7 µM. Further, the Ki on Acetylcholinesterase came out at 3.1 µM.

As to `O=c1cc(-c2ccc(O)c(O)c2)oc2cc(O)cc(O)c12` [LUTEOLIN], the IC50 in test [2] is 1.5 µM.

As to `O=c1c(O)c(-c2ccc(O)cc2O)oc2cc(O)cc(O)c12` [MORIN], the IC50 against Beta-secretase 1 was 21.7 µM.

As for `CC(C)(O)CCc1c(-c2ccc(O)cc2O)oc2c3c(cc(O)c2c1=O)OC(C)(C)C=C3` [MORUSINOL], the IC50 on Cholinesterase was 1.7 µM. In addition, affinity at Acetylcholinesterase was put at a Ki of 3.1 µM.

On to `CC(C)=CCc1c(-c2ccc(O)cc2O)oc2c3c(cc(O)c2c1=O)OC(C)(C)C=C3` [MORUSIN], for which the IC50 against Cholinesterase worked out at 1.7 µM. Also, the Ki on Acetylcholinesterase came to 3.1 µM.

Regarding `O=c1c(O)c(-c2cc(O)c(O)c(O)c2)oc2cc(O)cc(O)c12` [MYRICETIN], the IC50 at Acetylcholinesterase amounted to 0.012 µM; against Beta-secretase 1 it was 2.8 µM.

In the case of `O=C1C[C@@H](c2ccc(O)cc2)Oc2cc(O)cc(O)c21` [NARINGENIN], the IC50 in test [2] turned out to be 45.7 µM.

For the molecule `C[C@@H]1O[C@@H](O[C@H]2[C@H](Oc3cc(O)c4c(c3)O[C@H](c3ccc(O)cc3)CC4=O)O[C@H](CO)[C@@H](O)[C@@H]2O)[C@H](O)[C@H](O)[C@H]1O` [NARINGIN], in test [2], the IC50 worked out at 100 µM.

Molecule `CC1(C)C=Cc2c(cc(O)c3c(=O)c4c(oc23)-c2ccc(O)cc2OC(C(C)(C)O)C4)O1` (configuration not stated) [NEOCYCLOMORUSIN] showed an IC50 on Cholinesterase of 1.7 µM. The molecule further came in with an inhibition constant Ki at Acetylcholinesterase of 3.1 µM.

In turn, `Oc1cc(O)c2c(c1)O[C@H](c1ccc(O)c(O)c1)[C@H](O)[C@H]2c1c(O)cc(O)c2c1O[C@H](c1ccc(O)c(O)c1)[C@H](O)C2` [PROCYANIDIN B2] came in with an IC50 in test [1] of 3.8 µM.

Take `O=c1c(O)c(-c2ccc(O)c(O)c2)oc2cc(O)cc(O)c12` [QUERCETIN]: the IC50 is 421 µM on Cholinesterase, greater than 100 µM in test [1], 354 µM against Acetylcholinesterase and 2 µM in test [2].

In the case of `C[C@@H]1O[C@@H](OC[C@H]2O[C@@H](Oc3c(-c4ccc(O)c(O)c4)oc4cc(O)cc(O)c4c3=O)[C@H](O)[C@@H](O)[C@@H]2O)[C@H](O)[C@H](O)[C@H]1O` [RUTIN], on Acetylcholinesterase, the IC50 was determined as 0.012 µM.

`OCCc1ccc(O)cc1` [TYROSOL]: in test [1], the IC50 came to 7.5 µM.

Usually IC50 stands for the midpoint of a concentration-inhibition curve. As a reminder, the Ki is a dissociation constant, usually derived from enzyme kinetics or from competition with a known ligand.

For the origin of these results see ChEMBL document CHEMBL3045386, “Flavonoids as lead compounds modulating the enzyme targets in Alzheimers disease” (Med Chem Res, 2013).
